Drawing on US20260174721A1, “AGENT FOR RESTORING METAL HOMEOSTASIS” (Oxford Antibiotic Group GmbH, priority 2022, published 2026), this text covers minimal effective concentration for 13 compounds.

The subject of one experiment is Caenorhabditis elegans. In words: C. elegans nematode assay, overall rating over the Alzheimer and Parkinson tests. In kind it is in vivo. The conditions noted are these: Caenorhabditis elegans; rating from the effective concentration in both tests; read-out: Score. The method, then:
The substances (1) to (41) and (101) to (108), prepared in the above synthesis examples or purchased, were tested for their potential suitability as an agent for treating Alzheimer's disease in a 96-well procedure in the initially mentioned screening assay using the nematode Caenorhabditis elegans (Pretsch et al., see above) in a standardized β-amyloid test system using the transgenic C. elegans strain CL2659. For this purpose, stage L3 worm larvae were used at a density of 10-20 worms per well. The expression of β-amyloid in the muscle cells was induced by increasing the temperature, and the associated paralysis was recorded at regular intervals until the end of the test after 48 hours.
(§1) For this purpose, the above substances were tested at concentrations of 1 mg/ml, 100 μg/ml, and 10 μg/ml in comparison with quercetin as a […] control.
(§2) The same substances as above were tested in a 96-well procedure in the initially mentioned screening assay using the nematode Caenorhabditis elegans (Pretsch et al., see above) in a standardized α-synuclein test system using the transgenic C. elegans strain NL5901 for their potential suitability as an agent for treating Parkinson's disease. This worm strain expresses human α-synuclein bound to green fluorescent protein (GFP) in all muscle cells. GFP labeling allows a direct detection of expressed protein levels using a multiplate reader for 24 to 48 hours.
(§3) For this purpose, the substances were again tested at concentrations of 1 mg/ml, 100 μg/ml, and 10 μg/ml, but this time in comparison to the initially mentioned Parkinson therapeutic agent levodopa as a control.

For experiment [1], the system named is transgenic C. elegans strain NL5901. The experiment can be described thus: α-synuclein test system: reduction of α-synuclein-GFP expression in transgenic C. elegans strain NL5901 (Parkinson testing). In kind it is in vivo, Caenorhabditis elegans. The conditions noted are these: Caenorhabditis elegans; NL5901, GFP readout 24 to 48 hours; tested at 1 mg/ml, 100 μg/ml, 10 μg/ml; — = no effect even at 1 mg/ml; read-out: Parkinson: concentration range in which a reduction in α-synuclein expression was detectable. As to the method:
as §2, §3

Experiment [2] relates to transgenic C. elegans strain CL2659. In words: β-amyloid test system: delay of paralysis in transgenic C. elegans strain CL2659 (Alzheimer testing). The class given is in vivo, Caenorhabditis elegans. The conditions noted are these: Caenorhabditis elegans; CL2659 stage L3 larvae, 48 hours; tested at 1 mg/ml, 100 μg/ml, 10 μg/ml; — = no effect even at 1 mg/ml; read-out: Alzheimer: concentration range in which a delay in paralysis was observed. The method, then:
For this purpose, stage L3 worm larvae were used at a density of 10-20 worms per well. The expression of β-amyloid in the muscle cells was induced by increasing the temperature, and the associated paralysis was recorded at regular intervals until the end of the test after 48 hours.
as §1

For the compound `COC(=O)CC(=O)NC12CC3CC(CC(C3)C1)C2` [(16), malonic acid methyl ester N-(adamantan-1-yl)amide], the values for the minimal effective concentration (with Caenorhabditis elegans; in experiment [1]; in experiment [2]) were 10 to 100 µg/mL, over 10 µg/mL and over 10 µg/mL, respectively.

As for `O=C(O)CC(=O)NC12CC3CC(CC(C3)C1)C2` [(17), N-(adamantan-1-yl)malonic acid amide], the minimal effective concentration with Caenorhabditis elegans was 10 to 100 µg/mL; in experiment [1], over 10 µg/mL; in experiment [2] it was over 10 µg/mL.

`NCCCNC(=O)CC(=O)NC12CC3CC(CC(C3)C1)C2` [(18), N-adamantan-1-yl-N′-(3-aminopropyl)malonic acid diamide]: the minimal effective concentration (in the experiment with Caenorhabditis elegans; in experiment [1]; in experiment [2]) was over 100 µg/mL each time.

For the compound `CN(CCCN)C(=O)CC(=O)NC12CC3CC(CC(C3)C1)C2` [(19), N-adamantan-1-yl-N′-(3-aminopropyl)-N′-methyl malonic acid diamide], the minimal effective concentration in the experiment on Caenorhabditis elegans is 10 to 100 µg/mL; in experiment [1], over 10 µg/mL; in experiment [2], over 10 µg/mL.

Take `O=C(CC(=O)N1CCNCC1)NC12CC3CC(CC(C3)C1)C2` [(20), N-adamantan-1-yl-N′-piperazine malonic acid diamide]: the minimal effective concentration is 10 to 100 µg/mL with Caenorhabditis elegans, over 10 µg/mL in experiment [1] and over 10 µg/mL in experiment [2].

Regarding `NCCCC(=O)N1CCN(C(=O)CC(=O)NC23CC4CC(CC(C4)C2)C3)CC1` [(21), N-adamantan-1-yl-N′-(4-(4-aminobutyryl)piperazine)malonic acid diamide], the minimal effective concentration was 10 to 100 µg/mL with Caenorhabditis elegans, over 10 µg/mL in experiment [1] and over 10 µg/mL in experiment [2].

Turning to `NCCCNC(=O)CC(=O)N1CCCC2CCCCC21` (stereo not drawn) [(24), N-(3-aminopropyl)-N′-decahydroquinoline malonic acid diamide], the minimal effective concentration was 10 to 100 µg/mL in the experiment with Caenorhabditis elegans, over 10 µg/mL in experiment [1] and over 10 µg/mL in experiment [2].

For the compound `NCCCNC(=O)CC(=O)N1CCC2CCCCC2C1` (stereo not drawn) [(25), N-(3-aminopropyl)-N′-decahydroisoquinoline malonic acid diamide], the minimal effective concentration in the experiment on Caenorhabditis elegans was 10 to 100 µg/mL; in experiment [1], over 10 µg/mL; in experiment [2], over 10 µg/mL.

Regarding `CC1(C)C2CCC(CNC(=O)CC(=O)NCCCN)C1C2` (stereo not drawn) [(26), N-(3-aminopropyl)-N′-(6,6-dimethylbicyclo[3.1.1]heptane-2-ylmethyl)malonic acid diamide], the minimal effective concentration with Caenorhabditis elegans is 10 to 100 µg/mL; in experiment [1], over 10 µg/mL; in experiment [2], over 10 µg/mL.

Take `CN(C)CCCNC(=O)CC(=O)OC12CC3CC(CC(C3)C1)C2` [(27), malonic acid adamantan-1-yl ester N-(3-dimethylaminopropyl)amide]: the minimal effective concentration was 10 to 100 µg/mL in the experiment on Caenorhabditis elegans, over 10 µg/mL in experiment [1] and over 10 µg/mL in experiment [2].

As to `O=C(CC(=O)OC12CC3CC(CC(C3)C1)C2)NCCCN1CCOCC1` [(28), malonic acid adamantan-1-yl ester N-(3-morpholinopropyl)amide], the minimal effective concentration with Caenorhabditis elegans was 10 to 100 µg/mL; in experiment [1], over 10 µg/mL; in experiment [2] it was over 10 µg/mL.

On to `CC12CC3CC(C)(C1)CC(NC(=O)CC(=O)O)(C3)C2` [(32), malonic acid N-(3,5-dimethyl)adamantan-1-yl amide], for which the minimal effective concentration in the experiment on Caenorhabditis elegans was 10 to 100 µg/mL; in experiment [1], over 10 µg/mL; in experiment [2] it was over 10 µg/mL.

`CC12CC3CC(C)(C1)CC(NC(=O)CC(=O)NCCCN)(C3)C2` [(33), N-(3,5-dimethyladamantan-1-yl)-N′-(3-aminopropyl)malonic acid diamide]: the figures for the minimal effective concentration (in the experiment on Caenorhabditis elegans; in experiment [1]; in experiment [2]) were 10 to 100 µg/mL, over 10 µg/mL and over 10 µg/mL, respectively.
